Legend:
Type in all cases: in vivo
corn (Zea mays) = assay: Test A postemergence; settings: Zea mays, post-emergence, 240 h
How it was run: (§1)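 Seeds sprayed preemergence with a directed soil spray, or plants at 2 to 10 cm height and one- to two-leaf stage sprayed postemergence, with test chemicals in a non-phytotoxic solvent mixture containing surfactant, in loam soil–sand blend. Injury rated visually against untreated controls after about 10 d in greenhouse, 0 (no effect) to 100 (complete control).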

[1] = tested on: blackgrass (Alopecurus myosuroides); assay: Test A postemergence; settings: Alopecurus myosuroides, post-emergence, 240 h
How it was run: as §1

[2] = tested on: barnyardgrass (Echinochloa crus-galli); assay: Test A postemergence; settings: Echinochloa crus-galli, post-emergence, 240 h
How it was run: as §1

[3] = tested on: pigweed (Amaranthus retroflexus); assay: Test A postemergence; settings: Amaranthus retroflexus, post-emergence, 240 h
How it was run: as §1

[4] = tested on: wheat (Triticum aestivum); assay: Test A postemergence; settings: Triticum aestivum, post-emergence, 240 h
How it was run: as §1

[5] = tested on: giant foxtail (Setaria faberii); assay: Test A postemergence; settings: Setaria faberi, post-emergence, 240 h
How it was run: as §1

[6] = tested on: ryegrass, Italian (Italian ryegrass, Lolium multiflorum); assay: Test A postemergence; settings: Lolium multiflorum, post-emergence, 240 h
How it was run: as §1

[7] = tested on: Galium (catchweed bedstraw, Galium aparine); assay: Test A postemergence; settings: Galium, post-emergence, 240 h
How it was run: as §1

Kochia (Kochia scoparia) [8] = assay: Test A postemergence; settings: Bassia scoparia, post-emergence, 240 h
How it was run: as §1

[9] = tested on: ragweed (common ragweed, Ambrosia elatior); assay: Test A postemergence; settings: Ambrosia artemisiifolia, post-emergence, 240 h
How it was run: as §1

[10] = tested on: barnyardgrass (Echinochloa crus-galli); assay: Test A preemergence; settings: Echinochloa crus-galli, pre-emergence, 240 h, Preemergence
How it was run: as §1

[11] = tested on: pigweed (Amaranthus retroflexus); assay: Test A preemergence; settings: Amaranthus retroflexus, pre-emergence, 240 h, Preemergence
[12] = tested on: giant foxtail (Setaria faberii); assay: Test A preemergence; settings: Setaria faberi, pre-emergence, 240 h, Preemergence
How it was run: as §1

[13] = tested on: ryegrass, Italian (Italian ryegrass, Lolium multiflorum); assay: Test A preemergence; settings: Lolium multiflorum, pre-emergence, 240 h, Preemergence
How it was run: as §1

Kochia (Kochia scoparia) [14] = assay: Test A preemergence; settings: Bassia scoparia, pre-emergence, 240 h, Preemergence
How it was run: as §1

[15] = tested on: ragweed (common ragweed, Ambrosia elatior); assay: Test A preemergence; settings: Ambrosia artemisiifolia, pre-emergence, 240 h, Preemergence
How it was run: as §1

[16] = tested on: barnyardgrass (Echinochloa crus-galli); assay: Test B flooded paddy test; settings: Echinochloa crus-galli, 250 g ai/ha, Flood; 0 to 100 scale where 0 is no effect and 100 is complete control; read-out: Barnyardgrass plant response rating
How it was run: (§2)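 2-leaf plants; pots flooded 3 cm over soil; cpd added to paddy water; depth held; greenhouse 13–15 d; visual rating vs controls, 0 = no effect, 100 = complete control.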

[17] = tested on: sedge, umbrella (small-flower umbrella sedge, Cyperus difformis); assay: Test B flooded paddy test; settings: Cyperus difformis, 250 g ai/ha, Flood; 0 to 100 scale where 0 is no effect and 100 is complete control; read-out: Sedge, Umbrella plant response rating
How it was run: as §2

rice (Oryra sativa) = assay: Test B flooded paddy test; settings: Oryza sativa, 250 g ai/ha, Flood; 0 to 100 scale where 0 is no effect and 100 is complete control; read-out: Rice plant response rating
How it was run: as §2

[18] = tested on: ducksalad (Heteranthera limosa); assay: Test B flooded paddy test; settings: Heteranthera limosa, 250 g ai/ha, Flood; 0 to 100 scale where 0 is no effect and 100 is complete control; read-out: Ducksalad plant response rating
How it was run: as §2

In the case of CSc1ccccc1NC(=O)[C@H]1C(=O)N(C)C[C@@H]1c1ccc(C(F)(F)F)cn1 [Compound 1051], the plant injury at 125 g/ha (corn (Zea mays); 125 g ai/ha, postemergence, visual injury on 0 to 100 scale (0 no effect, 100 complete control), approx. 10 d, read-out: Corn plant response rating) is reported as 0%, the Corn plant response rating (crop injury, 0 = no effect, 100 = complete kill) at 31 g/ha (corn (Zea mays); Postemergence, 31 g ai/ha, visual injury after approx. 10 d, 0 to 100 scale, 0 no effect, 100 complete control) is reported as 0% and the pest or weed control at 125 g/ha ([1]; 125 g ai/ha, postemergence, visual injury on 0 to 100 scale (0 no effect, 100 complete control), approx. 10 d, read-out: Blackgrass plant response rating) is reported as 0%. The pest or weed control at 31 g/ha ([1]; Postemergence, 31 g ai/ha, visual injury after approx. 10 d, 0 to 100 scale, 0 no effect, 100 complete control, read-out: Plant response rating, Blackgrass) was 0%, the pest or weed control at 125 g/ha ([2]; 125 g ai/ha, postemergence, visual injury on 0 to 100 scale (0 no effect, 100 complete control), approx. 10 d, read-out: Barnyardgrass plant response rating) was 0% and the pest or weed control at 31 g/ha ([2]; Postemergence, 31 g ai/ha, visual injury after approx. 10 d, 0 to 100 scale, 0 no effect, 100 complete control, read-out: Plant response rating, Barnyardgrass) was 0%. It also gave a pest or weed control at 125 g/ha ([3]; 125 g ai/ha, postemergence, visual injury on 0 to 100 scale (0 no effect, 100 complete control), approx. 10 d, read-out: Pigweed plant response rating) of 0%, a pest or weed control at 31 g/ha ([3]; Postemergence, 31 g ai/ha, visual injury after approx. 10 d, 0 to 100 scale, 0 no effect, 100 complete control, read-out: Plant response rating, Pigweed) of 0% and a plant injury at 125 g/ha ([4]; 125 g ai/ha, postemergence, visual injury on 0 to 100 scale (0 no effect, 100 complete control), approx. 10 d, read-out: Wheat plant response rating) of 0%. It also gave a plant injury at 31 g/ha ([4]; Postemergence, 31 g ai/ha, visual injury after approx. 10 d, 0 to 100 scale, 0 no effect, 100 complete control, read-out: Plant response rating, Wheat) of 0%, a pest or weed control at 125 g/ha ([5]; 125 g ai/ha, postemergence, visual injury on 0 to 100 scale (0 no effect, 100 complete control), approx. 10 d, read-out: Foxtail, Giant plant response rating) of 0% and a pest or weed control at 31 g/ha ([5]; Postemergence, 31 g ai/ha, visual injury after approx. 10 d, 0 to 100 scale, 0 no effect, 100 complete control, read-out: Plant response rating, Foxtail, Giant) of 0%. It also gave a pest or weed control at 125 g/ha ([6]; 125 g ai/ha, postemergence, visual injury on 0 to 100 scale (0 no effect, 100 complete control), approx. 10 d, read-out: Ryegrass, Italian plant response rating) of 0%, a pest or weed control at 31 g/ha ([6]; Postemergence, 31 g ai/ha, visual injury after approx. 10 d, 0 to 100 scale, 0 no effect, 100 complete control, read-out: Plant response rating, Ryegrass, Italian) of 0% and a pest or weed control at 125 g/ha ([7]; 125 g ai/ha, postemergence, visual injury on 0 to 100 scale (0 no effect, 100 complete control), approx. 10 d, read-out: Galium plant response rating) of 50%. For the same compound, the pest or weed control at 31 g/ha ([7]; Postemergence, 31 g ai/ha, visual injury after approx. 10 d, 0 to 100 scale, 0 no effect, 100 complete control, read-out: Plant response rating, Galium) was 30%, the pest or weed control at 125 g/ha (Kochia (Kochia scoparia) [8]; 125 g ai/ha, postemergence, visual injury on 0 to 100 scale (0 no effect, 100 complete control), approx. 10 d, read-out: Kochia plant response rating) was 0% and the pest or weed control at 31 g/ha (Kochia (Kochia scoparia) [8]; Postemergence, 31 g ai/ha, visual injury after approx. 10 d, 0 to 100 scale, 0 no effect, 100 complete control, read-out: Plant response rating, Kochia) was 0%. The pest or weed control at 125 g/ha ([9]; 125 g ai/ha, postemergence, visual injury on 0 to 100 scale (0 no effect, 100 complete control), approx. 10 d, read-out: Ragweed plant response rating) was 0%, the pest or weed control at 31 g/ha ([9]; Postemergence, 31 g ai/ha, visual injury after approx. 10 d, 0 to 100 scale, 0 no effect, 100 complete control, read-out: Plant response rating, Ragweed) was 0% and the pest or weed control at 125 g/ha ([10]; 125 g ai/ha, visual injury rating after approximately 10 d, read-out: Barnyardgrass plant response rating (0 to 100 scale, 0 is no effect, 100 is complete control)) was 20%. It also gave a pest or weed control at 31 g/ha ([10]; 31 g ai/ha, 0 to 100 scale (0 no effect, 100 complete control), read-out: Plant response rating, Barnyardgrass) of 0%, a pest or weed control at 31 g/ha ([11]; 31 g ai/ha, 0 to 100 scale where 0 is no effect and 100 is complete control, read-out: Pigweed plant response rating) of 0% and a pest or weed control at 125 g/ha ([11]; 125 g ai/ha, visual injury rating after approximately 10 d, read-out: Pigweed plant response rating (0 to 100 scale, 0 is no effect, 100 is complete control)) of 40%. It also gave a pest or weed control at 125 g/ha ([12]; 125 g ai/ha, visual injury rating after approximately 10 d, read-out: Foxtail, Giant plant response rating (0 to 100 scale, 0 is no effect, 100 is complete control)) of 90%, a pest or weed control at 31 g/ha ([12]; 31 g ai/ha, 0 to 100 scale (0 no effect, 100 complete control), read-out: Plant response rating, Foxtail, Giant) of 30% and a pest or weed control at 31 g/ha ([13]; 31 g ai/ha, 0 to 100 scale where 0 is no effect and 100 is complete control, read-out: Ryegrass, Italian plant response rating) of 0%. It also gave a pest or weed control at 125 g/ha ([13]; 125 g ai/ha, visual injury rating after approximately 10 d, read-out: Ryegrass, Italian plant response rating (0 to 100 scale, 0 is no effect, 100 is complete control)) of 0%, a pest or weed control at 31 g/ha (Kochia (Kochia scoparia) [14]; 31 g ai/ha, 0 to 100 scale where 0 is no effect and 100 is complete control, read-out: Kochia plant response rating) of 0% and a pest or weed control at 125 g/ha (Kochia (Kochia scoparia) [14]; 125 g ai/ha, visual injury rating after approximately 10 d, read-out: Kochia plant response rating (0 to 100 scale, 0 is no effect, 100 is complete control)) of 0%. It also gave a pest or weed control at 31 g/ha ([15]; 31 g ai/ha, 0 to 100 scale where 0 is no effect and 100 is complete control, read-out: Ragweed plant response rating) of 0%, a pest or weed control at 125 g/ha ([15]; 125 g ai/ha, visual injury rating after approximately 10 d, read-out: Ragweed plant response rating (0 to 100 scale, 0 is no effect, 100 is complete control)) of 0% and a pest or weed control at 250 g/ha [16] of 0%. It also gave a pest or weed control at 250 g/ha [17] of 0%, a pest or weed control at 250 g/ha (rice (Oryra sativa)) of 0% and a pest or weed control at 250 g/ha [18] of 75%.
